PubChem BioAssay (NCI)
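Compound exposure: 48 hours, 5 concentrations, 96-well plates. GI50 marks 50% less growth. The concentration for full growth arrest is given as TGI.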

Tests used:
Test in all cases: growth of human tumour cells (NCI), 48 h
SK-OV-3 ovarian = test system: SK-OV-3 ovarian
DU-145 prostate = test system: DU-145 prostate
EKVX NSCLC = test system: EKVX NSCLC
PC-3 prostate = test system: PC-3 prostate
MDA-MB-231 breast = test system: MDA-MB-231 breast
K-562 leukemia = test system: K-562 leukemia
MDA-MB-435 = test system: MDA-MB-435
TK-10 renal = test system: TK-10 renal
SW-620 colon = test system: SW-620 colon
HCT-15 colon = test system: HCT-15 colon

Compound	TGI (SK-OV-3 ovarian) [µM]	TGI (DU-145 prostate) [µM]	TGI (EKVX NSCLC) [µM]	TGI (PC-3 prostate) [µM]	TGI (MDA-MB-231 breast) [µM]	TGI (K-562 leukemia) [µM]	TGI (MDA-MB-435) [µM]	TGI (TK-10 renal) [µM]	TGI (SW-620 colon) [µM]	TGI (HCT-15 colon) [µM]	GI50 (SK-OV-3 ovarian) [µM]	GI50 (DU-145 prostate) [µM]	GI50 (EKVX NSCLC) [µM]	GI50 (SW-620 colon) [µM]	GI50 (PC-3 prostate) [µM]	GI50 (K-562 leukemia) [µM]	GI50 (MDA-MB-435) [µM]	GI50 (HCT-15 colon) [µM]	GI50 (TK-10 renal) [µM]	GI50 (MDA-MB-231 breast) [µM]
CC(C)SC1SCC2C(=O)N(C)C3(CC3C)C(=O)OCC(NC(=O)c3nc4ccccc4cc3O)C(=O)NC(C)C(=O)N(C)C1C(=O)N(C)C1(CC1C)C(=O)OCC(NC(=O)c1nc3ccccc3cc1O)C(=O)NC(C)C(=O)N2C (stereo not drawn)	4.92	> 100	0.0759	< 0.0001	> 100	< 0.0001	< 0.0001	< 0.0001	–	–	–	–	–	–	–	–	–	–	–	–
NC(=O)c1csc(C2O[C@@H](COP(=O)(O)OP(=O)(O)OC[C@H]3OC(n4cnc5c(N)ncnc54)[C@H](O)[C@@H]3O)[C@H](O)[C@@H]2O)n1 (stereo partly drawn)	> 100	–	> 100	–	–	> 100	–	> 100	> 100	> 100	–	–	–	–	–	–	–	–	–	–
N#Cc1c2ccccc2c2nnc3cc(C(F)(F)F)ccc3n12	> 100	> 100	> 100	> 100	–	> 100	> 100	> 100	> 100	> 100	> 100	58.4	> 100	> 100	48.1	48.3	31.4	93.4	99.8	–
Cc1ccc(C2=[N+]([O-])c3ccccc3C2=O)cc1	> 100	–	51.7	–	–	41	–	> 31.6	> 55.2	42	–	–	–	–	–	–	–	–	–	–
COc1ccc(-n2c(-c3ccc(NC(=O)CCCl)cc3)nnc2-c2cc(OC)c(OC)c(OC)c2)cc1	> 14.3	8.67	> 14.3	> 14.3	> 14.3	–	> 14.3	11.9	> 14.3	> 14.3	4.34	2.77	3	4.55	4.45	–	4.4	3.68	4.97	3.56
COc1ccc(/C=C\c2cc(OC)c(OC)c(OC)c2)cc1NC(=O)[C@@H](N)CO	> 100	> 100	–	> 100	> 100	> 100	–	> 100	> 100	> 100	< 0.0124	0.0288	–	0.027	0.0188	< 0.01	–	0.0165	19.3	0.0215
CC1=C2C(=CC(C)(CO)C2O)C(=O)C(C)(O)C12CC2 (stereo not drawn)	0.0424	–	0.0335	–	–	0.105	–	0.0233	0.0585	0.0462	–	–	–	–	–	–	–	–	–	–
O=C(O)C(Cc1ccccc1-c1ccccc1)C(=O)O	–	> 100	> 100	> 100	> 100	> 100	> 100	> 100	> 100	> 100	–	–	–	–	–	–	–	–	–	–
COC1CCC2C(=O)CCCC2O1 (stereo not drawn)	> 100	–	> 100	–	–	> 100	–	> 100	> 100	> 100	–	–	–	–	–	–	–	–	–	–
Cc1cc(N(CCC#N)CCC#N)ccc1N=Nc1ccccc1[N+](=O)[O-]	> 100	–	> 100	–	–	> 100	–	> 100	> 100	> 100	–	–	–	–	–	–	–	–	–	–
COC(=O)C(=O)C(C(=O)C(=O)Nc1ccc([N+](=O)[O-])cc1[N+](=O)[O-])c1nc2ccc([N+](=O)[O-])cc2[nH]c1=O (stereo not drawn)	> 100	–	> 100	–	–	> 100	–	> 100	> 100	> 100	–	–	–	–	–	–	–	–	–	–
c1ccc(Oc2c3ccccc3nc3ccccc23)cc1	21	11.2	20.9	15.8	9.82	24.7	6.16	–	17.5	12.3	4.34	3.72	4.43	1.64	4.91	0.454	1.77	3.06	–	3.08
Cc1ccc2c(/C=C/C(=O)c3cc(CN4CCOCC4)c(O)c4nc(C)ccc34)cc(CN3CCOCC3)c(O)c2n1	–	–	13.6	19.1	5.2	17.1	2.3	3.77	2.4	3.33	–	–	2.1	0.485	0.577	0.355	0.669	0.223	1.13	1.44
COCC1N=C(c2ccc(OC)c(OCc3ccccc3)c2OC)O[C@H]1c1ccccc1 (stereo partly drawn)	96.1	–	> 100	–	–	> 100	–	> 100	> 100	94.5	–	–	–	–	–	–	–	–	–	–
O=C(c1ccccc1)c1ccc2cccc(O)c2n1	–	–	69	–	–	> 100	–	> 100	32.4	> 100	–	–	–	–	–	–	–	–	–	–
O=[N+]([O-])c1ccc2c(c1)OCCOCCOc1ccc([N+](=O)[O-])cc1OCCOCCO2	> 100	–	> 100	–	–	> 100	–	> 100	> 100	> 100	–	–	–	–	–	–	–	–	–	–
COc1cc(-c2cc(C(=O)Nc3nc4ccccc4s3)nc3cc(-c4ccccc4)nn23)cc(OC)c1OC	27.9	> 100	> 100	> 100	69.2	> 100	40.3	32.7	–	> 100	12.5	65	42.9	–	> 100	25.4	2.61	> 100	11.9	5.63
CC(C)(C)C(=O)Nc1ccccc1Br	> 100	–	> 100	–	–	> 100	–	> 100	> 100	> 100	–	–	–	–	–	–	–	–	–	–
COc1ccc(-c2nc3sccn3c2/C=C/C(=O)c2cc(OC)c(OC)c(OC)c2)cc1OC	8.07	–	> 100	6.96	27.7	> 100	19.1	> 100	–	> 100	2.9	–	3.92	–	2.21	2.41	2.84	3.24	4.8	2.87
O=NN(CCCl)C(=O)NCc1ccc[n+]([O-])c1	> 100	–	> 100	–	–	> 100	–	> 100	> 100	> 100	–	–	–	–	–	–	–	–	–	–
O=[N+]([O-])c1ccc(OCCNc2cccc3ccccc23)cc1	> 100	–	> 100	–	–	> 100	–	> 100	> 100	> 100	–	–	–	–	–	–	–	–	–	–
